Calls of active or inactive are those of the source. The rule behind the calls is not given here.
Tests used:
[1] = tested on: CCRF-CEM; test: Cytotoxicity against human CCRF-CEM cells assessed as reduction in cell viability after 72 hrs by resazurin reduction assay; format: functional, cell-based
[2] = tested on: ADR5000 cell line; test: Cytotoxicity against human CEM/ADR5000 cells assessed as reduction in cell viability after 72 hrs by resazurin reduction assay; format: functional, cell-based; details: ADR5000, 72 h
[3] = Resistance index, ratio of IC50 for human CEM/ADR5000 cells to IC50 for human CCRF-CEM cells; format: functional
[4] = tested on: CCRF-CEM; test: Cell cycle arrest in human CCRF-CEM cells assessed as accumulation at S phase at 0.055 to 0.44 uM after 6 to 72 hrs by propidium iodide staining-based flow cytometry; format: functional
[5] = tested on: CCRF-CEM; test: Cell cycle arrest in human CCRF-CEM cells assessed as accumulation at G2/M phase at 0.055 to 0.44 uM after 6 to 72 hrs by propidium iodide staining-based flow cytometry; format: functional
[6] = tested on: CCRF-CEM; test: Induction of apoptosis in human CCRF-CEM cells at 0.055 to 0.44 uM after 24 to 72 hrs by propidium iodide staining-based flow cytometry; format: functional, cell-based
[7] = tested on: CCRF-CEM; test: Cell cycle arrest in human CCRF-CEM cells assessed as accumulation at SubG1 phase at 0.055 to 0.44 uM after 72 hrs by propidium iodide staining-based flow cytometry; format: functional
[8] = tested on: CCRF-CEM; test: Cell cycle arrest in human CCRF-CEM cells assessed as accumulation at S phase at 0.01 uM after 6 hrs by propidium iodide staining-based flow cytometry; format: functional
[9] = tested on: CCRF-CEM; test: Cell cycle arrest in human CCRF-CEM cells assessed as accumulation at G2/M phase after 24 hrs by propidium iodide staining-based flow cytometry; format: functional
[10] = tested on: CCRF-CEM; test: Induction of apoptosis in human CCRF-CEM cells at 0.01 uM after 72 hrs by propidium iodide staining-based flow cytometry; format: functional, cell-based

Compound	IC50 [1] [µM]	IC50 [2] [µM]	Ratio IC50 [3]	Activity [4]	Activity [5]	Activity [6]	Activity [7]	Activity [8]	Activity [9]	Activity [10]
COc1cc(-c2c3c(n4ccc5cc(O)c(OC)cc5c24)C(=O)c2cc(O)c(OC)cc2-3)ccc1O	0.113	0.172	1.5	inactive	inactive	Active	Active			
CC[C@@]1(O)C(=O)OCc2c1cc1n(c2=O)Cc2cc3ccccc3nc2-1 [CAMPTOTHECIN]	0.003	0.011	3.7					Active	Dose-dependent effect	Active

— ChEMBL document CHEMBL4177527, “Synthesis and biological evaluation of a D-ring-contracted analogue of lamellarin D” (Bioorg Med Chem, 2017)
